Measurements taken from ChEMBL document CHEMBL5729478, “Alpha-5 beta-1 inhibitors” (2022).

Molecular target: Integrin alpha-5/beta-1 (Homo sapiens, UniProt P05556+P08648)
Assay: Cell Adhesion Assay: Evaluation of cell attachment to extracellular matrix proteins was performed as previously described by Yokosaki et al, J. Biol. Chem., 271: (39): 24144-24150 (1996). Briefly, wells of non-tissue culture-treated polystyrene 96-well flat-bottom microtiter plates (Linbro/Titertek, Flow Laboratories, McLean, Va.) were coated by incubation with 100 μl of each substrate in PBS at 37° C. for 1 hour. 96-well flat-bottomed tissue culture plates were coated with human plasma fibronectin for 1 hour at 37° C. After incubation, wells were washed with PBS, then blocked with 1% bovine serum albumin (BSA) for one hour. Control wells were filled with 1% BSA. SW480 cells were detached using 10 mM EDTA and resuspended in serum-free DMEM. For blocking experiments, cells were incubated with 10 μg/ml of the antibody for 15 minutes at 4° C. before plating. The plates were centrifuged at 10 g for 5 minutes before incubation for 1 hour at 37° C. in humidified 5% CO2. Nonadherent cells were removed by centrifugation (top side down) at 10 g for 5 minutes. Attached cells were stained with 0.5% crystal violet, and the wells were washed with PBS. The relative number of cells in each well was evaluated after solubilization in 40 μl of 2% Triton X-100 by measuring absorbance at 595 nm in a microplate reader. All determinations were carried out in triplicate.

Chain of Integrin alpha-5/beta-1 (P05556 21-798 limits assumed): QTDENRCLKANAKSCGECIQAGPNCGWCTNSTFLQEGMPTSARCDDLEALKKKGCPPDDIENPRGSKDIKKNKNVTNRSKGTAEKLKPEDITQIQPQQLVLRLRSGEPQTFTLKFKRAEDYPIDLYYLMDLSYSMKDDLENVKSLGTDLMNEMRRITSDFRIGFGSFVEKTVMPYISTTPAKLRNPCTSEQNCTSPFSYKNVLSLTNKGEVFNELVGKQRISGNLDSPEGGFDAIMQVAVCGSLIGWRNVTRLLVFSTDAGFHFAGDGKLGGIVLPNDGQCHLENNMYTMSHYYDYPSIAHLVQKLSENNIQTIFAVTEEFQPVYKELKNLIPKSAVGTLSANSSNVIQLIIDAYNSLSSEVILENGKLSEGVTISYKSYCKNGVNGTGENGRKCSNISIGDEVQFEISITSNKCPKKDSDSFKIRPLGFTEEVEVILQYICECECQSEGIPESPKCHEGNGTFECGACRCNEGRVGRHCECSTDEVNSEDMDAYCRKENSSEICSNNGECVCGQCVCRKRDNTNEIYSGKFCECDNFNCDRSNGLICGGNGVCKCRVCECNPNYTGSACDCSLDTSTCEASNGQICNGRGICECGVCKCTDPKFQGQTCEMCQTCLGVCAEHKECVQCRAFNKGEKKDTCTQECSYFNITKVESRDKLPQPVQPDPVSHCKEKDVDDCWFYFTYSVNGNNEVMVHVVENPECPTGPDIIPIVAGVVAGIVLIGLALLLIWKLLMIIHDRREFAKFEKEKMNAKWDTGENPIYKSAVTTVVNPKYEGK
Chain of Integrin alpha-5/beta-1 (P08648 42-894 limits assumed): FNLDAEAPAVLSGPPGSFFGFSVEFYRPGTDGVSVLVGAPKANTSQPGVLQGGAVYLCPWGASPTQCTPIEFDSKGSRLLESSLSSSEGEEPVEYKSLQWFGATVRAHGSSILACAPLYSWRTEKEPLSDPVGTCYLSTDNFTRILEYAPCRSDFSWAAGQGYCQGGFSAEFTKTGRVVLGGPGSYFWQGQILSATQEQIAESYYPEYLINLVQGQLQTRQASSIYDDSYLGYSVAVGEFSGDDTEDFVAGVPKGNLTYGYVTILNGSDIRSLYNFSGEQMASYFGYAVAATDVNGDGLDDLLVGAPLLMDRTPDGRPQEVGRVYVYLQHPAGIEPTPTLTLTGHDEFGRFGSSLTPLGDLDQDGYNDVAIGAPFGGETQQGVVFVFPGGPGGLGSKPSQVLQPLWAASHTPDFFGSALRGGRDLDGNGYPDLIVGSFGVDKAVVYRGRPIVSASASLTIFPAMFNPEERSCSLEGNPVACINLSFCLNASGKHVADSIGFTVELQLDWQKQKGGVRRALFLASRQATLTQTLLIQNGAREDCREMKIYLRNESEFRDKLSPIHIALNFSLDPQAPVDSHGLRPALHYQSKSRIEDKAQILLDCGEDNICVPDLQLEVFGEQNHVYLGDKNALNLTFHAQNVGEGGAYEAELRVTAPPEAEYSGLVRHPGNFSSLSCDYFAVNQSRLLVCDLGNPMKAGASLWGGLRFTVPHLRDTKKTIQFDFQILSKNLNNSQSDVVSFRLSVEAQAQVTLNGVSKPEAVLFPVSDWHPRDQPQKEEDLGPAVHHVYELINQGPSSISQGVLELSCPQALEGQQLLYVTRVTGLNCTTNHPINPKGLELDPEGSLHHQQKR
Chain of Integrin alpha-5/beta-1 (P08648 895-1049 limits assumed): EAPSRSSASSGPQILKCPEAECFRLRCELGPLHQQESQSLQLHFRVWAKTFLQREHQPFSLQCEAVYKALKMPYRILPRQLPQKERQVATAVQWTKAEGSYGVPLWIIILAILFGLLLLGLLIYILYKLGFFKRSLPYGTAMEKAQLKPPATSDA

| IC50 [nM] | SMILES |
| --- | --- |
| < 100 | O=C(CNC(=O)c1cccc(NC2=NCC(O)CN2)c1)NC[C@H](NC(=O)c1c(Cl)cc(-c2ccccc2)cc1Cl)C(=O)O (stereo partly drawn) |
| < 100 | N#Cc1cc(NC(=N)N)cc(C(=O)NCC(=O)NC[C@H](NC(=O)c2c(Cl)cc(-c3ccccc3)cc2Cl)C(=O)O)c1 |
| < 100 | O=C(CNC(=O)c1cccc(NC2=NCCCO2)c1)NC[C@H](NC(=O)c1c(Cl)cc(-c2ccccc2)cc1Cl)C(=O)O |
